Test results reported in patent US8946270B2, “Amido-pyridyl ether compounds and compositions and their use against parasites” (Merial Limited, priority 2011, dated 2015).
Where two headings read alike, the source gives them in different places.

Columns and labels:
Haematobia irritans = test: whole plant or invertebrate; conditions: 5 μg/cm^2; for mortality at 5 µg/cm2: Haematobia irritans, read-out: Contact SP Horn Fly PCT Mortality (%)
Experimental: A solution of the test compound was used to treat a filter paper contained within a Petri dish and the filter paper was allowed to evaporate to dryness. A small piece of absorbent cotton moistened with 10% sucrose and ten adult flies (Haematobia irritans or Stomoxys calcitrans) were added to each dish. Dishes were capped and held at room temperature. Assessments were performed at 4 and 24 hours after infestation in comparison with untreated controls.

[1] = tested on: Rhipicephalus sanguineus (Brown Dog Tick); test: whole plant or invertebrate; conditions: for mortality at 200 ppm: Rhipicephalus sanguineus, read-out: Contact SP Rhicicep PCT Mortality (%); for Contact SP Rhicicep PCT Mortality (%): 200 ppm
Text: A solution of the test compound was used to coat the inner wall of glass vials and to treat two filter papers. Once dried, one filter paper was placed in the cap of the vial and the other in the bottom of the vial. Each treated vial was infested with 10 adult Rhipicephalus sanguineus (Brown Dog Tick). […]

SMILES: CC(C)CNC(=O)c1ccc(C(C)COc2cccc(OC(F)(F)F)c2)cn1 (racemic) [Compound 251]
- Contact SP Horn Fly PCT Mortality (%) (Haematobia irritans; timepoint 4 hrs): 80%
- Contact SP Horn Fly PCT Mortality (%) (Haematobia irritans; timepoint 24 hrs): 100%

SMILES: CC(C)CNC(=O)c1ccc(COc2ccc(OC(F)(F)F)cc2)cn1 [Compound 10]
- mortality at 5 µg/cm2 (Haematobia irritans; timepoint 4 hrs): 90%
- mortality at 5 µg/cm2 (Haematobia irritans; timepoint 24 hrs): 90%
- mortality at 200 ppm ([1]; timepoint 4 hrs): 0%
- mortality at 200 ppm ([1]; timepoint 24 hrs): 100%

SMILES: COCCCNC(=O)c1ccc(COc2ccc(OC(F)(F)F)cc2)cn1 [Compound 18]
- Contact SP Horn Fly PCT Mortality (%) (Haematobia irritans; timepoint 4 hrs): 0%
- Contact SP Horn Fly PCT Mortality (%) (Haematobia irritans; timepoint 24 hrs): 40%

SMILES: CCNC(=O)c1ccc(COc2ccc(OC(F)(F)F)cc2)cn1 [Compound 23]
- Contact SP Rhicicep PCT Mortality (%) ([1]; timepoint 4 hrs): 80%
- Contact SP Rhicicep PCT Mortality (%) ([1]; timepoint 24 hrs): 90%

SMILES: CCCNC(=O)c1ccc(COc2ccc(OC(F)(F)F)cc2)cn1 [Compound 34]
- Contact SP Horn Fly PCT Mortality (%) (Haematobia irritans; timepoint 4 hrs): 60%
- Contact SP Horn Fly PCT Mortality (%) (Haematobia irritans; timepoint 24 hrs): 80%

SMILES: C=C(C)CNC(=O)c1ccc(COc2ccc(OC(F)(F)F)cc2)cn1 [Compound 38]
- Contact SP Horn Fly PCT Mortality (%) (Haematobia irritans; timepoint 4 hrs): 50%
- Contact SP Horn Fly PCT Mortality (%) (Haematobia irritans; timepoint 24 hrs): 80%

SMILES: CCCCNC(=O)c1ccc(COc2ccc(OC(F)(F)F)cc2)cn1 [Compound 40]
- Contact SP Horn Fly PCT Mortality (%) (Haematobia irritans; timepoint 4 hrs): 0%
- Contact SP Horn Fly PCT Mortality (%) (Haematobia irritans; timepoint 24 hrs): 40%

SMILES: CCC(C)CNC(=O)c1ccc(COc2ccc(OC(F)(F)F)cc2)cn1 (stereo not drawn) [Compound 41]
- mortality at 5 µg/cm2 (Haematobia irritans; timepoint 4 hrs): 60%
- mortality at 5 µg/cm2 (Haematobia irritans; timepoint 24 hrs): 60%

SMILES: CSCCNC(=O)c1ccc(COc2cccc(OC(F)(F)F)c2)cn1 [Compound 49]
- mortality at 5 µg/cm2 (Haematobia irritans; timepoint 4 hrs): 60%
- mortality at 5 µg/cm2 (Haematobia irritans; timepoint 24 hrs): 0%

SMILES: CC(C)NC(=O)c1ccc(COc2cccc(OC(F)(F)F)c2)cn1 [Compound 50]
- Contact SP Horn Fly PCT Mortality (%) (Haematobia irritans; timepoint 4 hrs): 70%
- Contact SP Horn Fly PCT Mortality (%) (Haematobia irritans; timepoint 24 hrs): 80%

SMILES: C=C(C)CNC(=O)c1ccc(COc2cccc(OC(F)(F)F)c2)cn1 [Compound 53]
- Contact SP Horn Fly PCT Mortality (%) (Haematobia irritans; timepoint 4 hrs): 20%
- Contact SP Horn Fly PCT Mortality (%) (Haematobia irritans; timepoint 24 hrs): 20%

SMILES: CCC(C)CNC(=O)c1ccc(COc2cccc(OC(F)(F)F)c2)cn1 (stereo not drawn) [Compound 57]
- Contact SP Horn Fly PCT Mortality (%) (Haematobia irritans; timepoint 4 hrs): 70%
- Contact SP Horn Fly PCT Mortality (%) (Haematobia irritans; timepoint 24 hrs): 80%

SMILES: Cc1cccc(OCc2ccc(C(=O)NCC3CC3)nc2)c1 [Compound 61]
- Contact SP Horn Fly PCT Mortality (%) (Haematobia irritans; timepoint 4 hrs): 90%
- Contact SP Horn Fly PCT Mortality (%) (Haematobia irritans; timepoint 24 hrs): 90%

SMILES: CCc1cccc(OCc2ccc(C(=O)NCC3CCOCC3)nc2)c1 [Compound 68]
- mortality at 200 ppm ([1]; timepoint 4 hrs): 50%
- mortality at 200 ppm ([1]; timepoint 24 hrs): 90%

SMILES: CCc1cccc(OCc2ccc(C(=O)NCCSC)nc2)c1 [Compound 70]
- Contact SP Rhicicep PCT Mortality (%) ([1]; timepoint 4 hrs): 80%
- Contact SP Rhicicep PCT Mortality (%) ([1]; timepoint 24 hrs): 100%

SMILES: CCc1cccc(OCc2ccc(C(=O)NCC3CC3)nc2)c1 [Compound 73]
- Contact SP Horn Fly PCT Mortality (%) (Haematobia irritans; timepoint 4 hrs): 100%
- Contact SP Horn Fly PCT Mortality (%) (Haematobia irritans; timepoint 24 hrs): 100%

SMILES: O=C(NCC1CC1)c1ccc(COc2ccc(C(F)(F)F)cc2)cn1 [Compound 95]
- Contact SP Horn Fly PCT Mortality (%) (Haematobia irritans; timepoint 4 hrs): 50%
- Contact SP Horn Fly PCT Mortality (%) (Haematobia irritans; timepoint 24 hrs): 70%

SMILES: O=C(NCc1ccncc1)c1ccc(COc2cc(F)cc(Br)c2)cn1 [Compound 114]
- Contact SP Rhicicep PCT Mortality (%) ([1]; timepoint 4 hrs): 40%
- Contact SP Rhicicep PCT Mortality (%) ([1]; timepoint 24 hrs): 60%

SMILES: CSCCNC(=O)c1ccc(COc2cc(F)cc(Br)c2)cn1 [Compound 115]
- Contact SP Horn Fly PCT Mortality (%) (Haematobia irritans; timepoint 4 hrs): 0%
- Contact SP Horn Fly PCT Mortality (%) (Haematobia irritans; timepoint 24 hrs): 60%

SMILES: CCCNC(=O)c1ccc(COc2cc(F)cc(Br)c2)cn1 [Compound 120]
- Contact SP Rhicicep PCT Mortality (%) ([1]; timepoint 4 hrs): 60%
- Contact SP Rhicicep PCT Mortality (%) ([1]; timepoint 24 hrs): 70%

SMILES: O=C(NCCc1ccccn1)c1ccc(COc2cc(F)cc(Br)c2)cn1 [Compound 121]
- Contact SP Horn Fly PCT Mortality (%) (Haematobia irritans; timepoint 4 hrs): 80%
- Contact SP Horn Fly PCT Mortality (%) (Haematobia irritans; timepoint 24 hrs): 80%

SMILES: CC(C)CNC(=O)c1ccc(COc2cc(F)cc(Br)c2)cn1 [Compound 125]
- mortality at 5 µg/cm2 (Haematobia irritans; timepoint 4 hrs): 100%
- mortality at 5 µg/cm2 (Haematobia irritans; timepoint 24 hrs): 100%

SMILES: CC(C)CCNC(=O)c1ccc(COc2cc(F)cc(Br)c2)cn1 [Compound 129]
- mortality at 5 µg/cm2 (Haematobia irritans; timepoint 4 hrs): 40%
- mortality at 5 µg/cm2 (Haematobia irritans; timepoint 24 hrs): 40%

SMILES: CC(C)CNC(=O)c1ccc(COCc2cccc(OC(F)(F)F)c2)cn1 [Compound 132]
- Contact SP Horn Fly PCT Mortality (%) (Haematobia irritans; timepoint 4 hrs): 100%
- Contact SP Horn Fly PCT Mortality (%) (Haematobia irritans; timepoint 24 hrs): 100%

SMILES: CC(C)CNC(=O)c1ccc(COCc2ccc(OC(F)(F)F)cc2)cn1 [Compound 133]
- mortality at 5 µg/cm2 (Haematobia irritans; timepoint 4 hrs): 80%
- mortality at 5 µg/cm2 (Haematobia irritans; timepoint 24 hrs): 80%

SMILES: C=C(C)CNC(=O)c1ccc(COc2cccc(OC)c2)cn1 [Compound 150]
- Contact SP Rhicicep PCT Mortality (%) ([1]; timepoint 4 hrs): 70%
- Contact SP Rhicicep PCT Mortality (%) ([1]; timepoint 24 hrs): 70%

SMILES: COc1cccc(OCc2ccc(C(=O)NCC(C)C)nc2)c1 [Compound 151]
- Contact SP Rhicicep PCT Mortality (%) ([1]; timepoint 4 hrs): 0%
- Contact SP Rhicicep PCT Mortality (%) ([1]; timepoint 24 hrs): 80%

SMILES: CC(C)CNC(=O)c1ccc(COc2ccc(F)c(F)c2)cn1 [Compound 155]
- Contact SP Rhicicep PCT Mortality (%) ([1]; timepoint 4 hrs): 60%
- Contact SP Rhicicep PCT Mortality (%) ([1]; timepoint 24 hrs): 100%

SMILES: COCCCNC(=O)c1ccc(COc2cccc(-c3cccc(F)c3)c2)cn1 [Compound 166]
- Contact SP Rhicicep PCT Mortality (%) ([1]; timepoint 4 hrs): 40%
- Contact SP Rhicicep PCT Mortality (%) ([1]; timepoint 24 hrs): 80%
